# Results published in patent US20210298307A1 (priority 2020, published 2021).
# Where two headings read alike, the source gives them in different places. Marks after values point to notes of the source that are not given here.
# Experiments:
# Ralstonia solanacearum = format: in vivo; details: beef tomato, foliar spray at 3 and 10 dpi, 5 mg/L IBA and/or 15 mg/L Kinetin in 0.1% (v/v) Tween 80; for Severity score at days post infection (dpi): 9 / Severity score at days post infection (dpi): 11 / Severity score at days post infection (dpi): 13: 0-5 disease scale, mean n=12; for Severity score at days post infection (dpi): 9: 9 dpi; for Severity score at days post infection (dpi): 11: 11 dpi; for Severity score at days post infection (dpi): 13 / Survival Rate (13 dpi): 13 dpi; for Survival Rate (13 dpi): n=12
# R. solanacearum [1] = format: in vivo, Ralstonia solanacearum; details: beef tomato, soil drench at 3 and 10 dpi, 5 mg/L IBA and/or 15 mg/L Kinetin; for Severity score at days post infection (dpi): 9 / Severity score at days post infection (dpi): 11 / Severity score at days post infection (dpi): 13: 0-5 disease scale, mean n=12; for Severity score at days post infection (dpi): 9: 9 dpi; for Severity score at days post infection (dpi): 11: 11 dpi; for Severity score at days post infection (dpi): 13 / Survival Rate (13 dpi): 13 dpi; for Survival Rate (13 dpi): n=12
# R. solanacearum [2] = format: in vivo, Ralstonia solanacearum; details: beef tomato, soil drench before inoculation and at 3 and 10 dpi, 5 mg/L IBA and/or 20 mg/L Kinetin; for Severity score at days post infection (dpi): 9 / Severity score at days post infection (dpi): 11 / Severity score at days post infection (dpi): 13: 0-5 disease scale, mean n=12; for Severity score at days post infection (dpi): 9: 9 dpi; for Severity score at days post infection (dpi): 11: 11 dpi; for Severity score at days post infection (dpi): 13 / Survival Rate (13 dpi): 13 dpi; for Survival Rate (13 dpi): n=12
Compound,Severity score at days post infection (dpi): 9 (Ralstonia solanacearum),Severity score at days post infection (dpi): 11 (Ralstonia solanacearum),Severity score at days post infection (dpi): 13 (Ralstonia solanacearum),Survival Rate (13 dpi) (Ralstonia solanacearum),Severity score at days post infection (dpi): 9 (R. solanacearum [1]),Severity score at days post infection (dpi): 11 (R. solanacearum [1]),Severity score at days post infection (dpi): 13 (R. solanacearum [1]),Survival Rate (13 dpi) (R. solanacearum [1]),Severity score at days post infection (dpi): 9 (R. solanacearum [2]),Severity score at days post infection (dpi): 11 (R. solanacearum [2]),Severity score at days post infection (dpi): 13 (R. solanacearum [2]),Survival Rate (13 dpi) (R. solanacearum [2])
"O=C(O)CCCc1c[nH]c2ccccc12 [IBA, indole-3-butyric acid]",0.25*,2.50,3.25,58%,0.25*,1.00*,2.50,67%,0.92,1.58,2.17*,75%
"c1coc(CNc2ncnc3nc[nH]c23)c1 [Kinetin, N6-furfuryladenine]",0.42,2.08,3.17,58%,0.25*,1.08*,2.58,75%,0.83,1.42,2.08*,75%
